Reference: US20110237538A1, “TREATMENT OF LYSOSOMAL STORAGE DISORDERS AND OTHER PROTEOSTATIC DISEASES” (SUMMIT CORPORATION PLC, priority 2008, published 2011)

How the values were obtained:
[1] = target: T1, wild type (wt) beta-glucocerebrosidase (Homo sapiens, UniProt P04062); experiment: beta-glucocerebrosidase activity assay in HL60 lysate (4MU-β-D-glc); assay type: biochemical; conditions: at a concentration of 100 μM, 0.5 mM 4MU-β-D-glc;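 also: fluorometric read-out of 4MU liberated from the substrate (ex 360 nm, em 450 nm) after 37 °C incubation, reaction stopped with sodium carbonate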
T1 construct: The lysates were used as a source for wild type (wt) beta-glucocerebrosidase; endogenous in cells; host or cells: HL60 (ECACC No. 98070106) lysate
T1 sequence (P04062 40-536): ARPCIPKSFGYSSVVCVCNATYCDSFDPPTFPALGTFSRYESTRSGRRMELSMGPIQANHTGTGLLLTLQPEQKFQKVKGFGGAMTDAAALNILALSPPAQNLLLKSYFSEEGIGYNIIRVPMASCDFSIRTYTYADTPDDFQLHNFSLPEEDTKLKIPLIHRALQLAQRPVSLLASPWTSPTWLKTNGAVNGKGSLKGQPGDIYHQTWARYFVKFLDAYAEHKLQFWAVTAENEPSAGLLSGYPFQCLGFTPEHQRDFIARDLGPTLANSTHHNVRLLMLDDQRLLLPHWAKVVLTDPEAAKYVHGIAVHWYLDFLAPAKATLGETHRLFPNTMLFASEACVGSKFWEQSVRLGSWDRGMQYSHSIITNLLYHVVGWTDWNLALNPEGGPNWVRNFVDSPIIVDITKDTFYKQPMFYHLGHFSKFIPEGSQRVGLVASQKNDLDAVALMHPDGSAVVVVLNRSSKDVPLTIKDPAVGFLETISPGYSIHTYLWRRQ

[2] = target: T2, wild type (wt) lysosomal alpha-glucosidase (Homo sapiens, UniProt P10253); experiment: alpha-glucosidase activity assay in HL60 lysate (4MU-α-D-glc); assay type: biochemical; conditions: at a concentration of 100 uM, 0.5 mM 4MU-α-D-glc, pH 4.5;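 also: fluorometric rate of 4MU product release read at 360 nm excitation and 450 nm emission, reactions run at 37 °C in citric phosphate buffer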
T2 construct: The lysates were used as a source for wild type (wt) lysosomal alpha-glucosidase; endogenous in cells; host or cells: HL60 (ECACC No. 98070106) lysate

| SMILES | inhibition at 100 µM [2] [%] | inhibition at 100 µM [1] [%] |
| --- | --- | --- |
| OC[C@@H]1[C@@H](O)[C@H](O)[C@@H]2[C@@H](O)CCN21 [Compound 17, (1R,2R,3R,7S,7aS)-3-(hydroxymethyl)hexahydro-1H-pyrrolizine-1,2,7-triol] | – | > 50 |
| CC[C@@H]1N[C@@H](CO)[C@H](O)[C@@H](O)[C@@H]1O [Compound 23, (2S,3R,4S,5S,6S)-2-ethyl-6-(hydroxymethyl)piperidine-3,4,5-triol] | > 50 | – |
| O[C@@H]1[C@@H](O)[C@H](O)[C@]2(O)C[C@@H](O)[C@H]1N2 [Compound 33, (1R,2S,3R,4S,5R,6R)-8-azabicyclo[3.2.1]octane-1,2,3,4,6-pentaol] | – | > 50 |
| OCC1OC(O[C@H]2CN3C[C@H](O)[C@@H](O)[C@H](O)[C@H]3[C@H]2O)C(O)C(O)C1O (stereo partly drawn) [Compound 41, (1R,2S,6S,7R,8R,8aS)-2-(3,4,5-trihydroxy-6-(hydroxymethyl)tetrahydro-2H-pyran-2-yloxy)octahydroindolizine-1,6,7,8-tetraol] | > 50 | – |
| OC1C[C@@]2(O)N[C@@H]1C[C@H](O)[C@H]2O (stereo partly drawn) [Compound 43, (1S,2R,3S,5R)-8-azabicyclo[3.2.1]octane-1,2,3,6-tetraol] | – | > 50 |
| CCCC(=O)O[C@H]1CN2CC[C@H](O)C2[C@@H](O)[C@@H]1O (stereo partly drawn) [Compound 46, (1S,6S,7S,8R)-1,7,8-trihydroxyoctahydroindolizin-6-yl butyrate] | > 50 | – |
| C[C@H]1N[C@H](CO)[C@@H](O)[C@H](O)[C@H]1O [Compound 51, (2R,3R,4R,5S,6R)-2-(hydroxymethyl)-6-methylpiperidine-3,4,5-triol] | > 50 | – |
| C[C@@H]1CCC[C@@H]2[C@@H](O)[C@@H](O)[C@@H](CO)N12 [Compound 60, (1R,2S,3R,5R,8aR)-3-(hydroxymethyl)-5-methyloctahydroindolizine-1,2-diol] | – | > 50 |
| CC(O)CC[C@@H]1[C@@H](O)C[C@@H]2[C@H](O)[C@H](O)[C@@H](CO)N21 (stereo partly drawn) [Compound 66, (1S,2R,3R,5R,6S,7aR)-5-(3-hydroxybutyl)-3-(hydroxymethyl)hexahydro-1H-pyrrolizine-1,2,6-triol] | – | > 50 |
| OCC1OC(OC[C@H]2NC[C@H](O)[C@@H](O)[C@@H]2O)C(O)C(O)C1O (stereo partly drawn) [Compound 78, (2R,3R,4R,5S)-2-((3,4,5-trihydroxy-6-(hydroxymethyl)tetrahydro-2H-pyran-2-yloxy)methyl)piperidine-3,4,5-triol] | > 50 | – |
| OCC1OC(O[C@H]2[C@H](O)[C@@H](CO)N[C@@H]2CO)C(O)C(O)C1O (stereo partly drawn) [Compound 79, 2-((2R,3R,4R,5R)-4-hydroxy-2,5-bis(hydroxymethyl)pyrrolidin-3-yloxy)-6-(hydroxymethyl)tetrahydro-2H-pyran-3,4,5-triol] | > 50 | – |
| C[N+]1(C)C[C@@H](O)[C@H](O)[C@H]1C(=O)[O-] [Compound 80, (2S,3R,4R)-3,4-dihydroxy-1,1-dimethylpyrrolidinium-2-carboxylate] | > 50 | – |
| CCCCN1C[C@H](O)[C@@H](O)[C@H](O)[C@H]1CO [Compound 118, (2R,3R,4R,5S)-1-butyl-2-(hydroxymethyl)piperidine-3,4,5-triol] | > 50 | – |
| OCC1OC(O[C@H]2CN[C@H](CO)[C@@H](O)[C@@H]2O)C(O)C(O)C1O (stereo partly drawn) [Compound 121, 2-((3S,4S,5R,6R)-4,5-dihydroxy-6-(hydroxymethyl)piperidin-3-yloxy)-6-(hydroxymethyl)tetrahydro-2H-pyran-3,4,5-triol] | > 50 | – |
| OC[C@@H]1[C@@H](O)[C@H](O)[C@H]2[C@H](O)[C@@H](O)CN21 [Compound 137, (1R,2R,3R,6S,7S,7aR)-3-(hydroxymethyl)hexahydro-1H-pyrrolizine-1,2,6,7-tetraol] | > 50 | – |
| C[C@@H]1CC[C@@H]2[C@H](O)[C@H](O)[C@@H](CO)N12 [Compound 150, (1S,2R,3R,5R,7aR)-3-(hydroxymethyl)-5-methylhexahydro-1H-pyrrolizine-1,2-diol] | > 50 | – |
| OC[C@@H](O)[C@@H]1NC[C@](O)(CO)[C@H]1O [Compound 179, (2S,3S,4S)-2-((S)-1,2-dihydroxyethyl)-4-(hydroxymethyl)pyrrolidine-3,4-diol] | > 50 | – |
| OC[C@H]1NC[C@H](O)[C@@H](O)[C@@H]1O [Compound 193, (2R,3R,4R,5S)-2-(hydroxymethyl)piperidine-3,4,5-triol] | > 50 | – |
| OC[C@@H]1NC[C@](O)(CO)[C@H]1O [Compound 202, (2S,3S,4S)-2,4-bis(hydroxymethyl)pyrrolidine-3,4-diol] | > 50 | – |
| O=C(O)CN1C[C@H](O)[C@@H](O)[C@H](O)[C@H]1CO [Compound 214, 2-((2R,3R,4R,5S)-3,4,5-trihydroxy-2-(hydroxymethyl)piperidin-1-yl)acetic acid] | > 50 | – |
| OC[C@@H]1NC[C@@H](O)[C@H](O)[C@H]1O [Compound 221, (2S,3S,4S,5R)-2-(hydroxymethyl)piperidine-3,4,5-triol] | > 50 | – |
| OCCCCN1C[C@H](O)[C@@H](O)[C@H](O)[C@H]1CO [Compound 276, (2R,3R,4R,5S)-1-(4-hydroxybutyl)-2-(hydroxymethyl)piperidine-3,4,5-triol] | > 50 | – |
| C[C@@H]1N[C@@H](CO)[C@H](O)[C@H]1O [Compound 300, (2S,3S,4S,5S)-2-(hydroxymethyl)-5-methylpyrrolidine-3,4-diol] | > 50 | – |
| O[C@H]1[C@H](O)[C@@H](O)CN2C[C@H](O)[C@@H](O)[C@H]12 [Compound 352, (1S,2S,6S,7R,8R,8aR)-octahydroindolizine-1,2,6,7,8-pentaol] | > 50 | – |
| C[C@H]1NC[C@H](O)[C@@H](O)[C@@H]1O [Compound 388, (2R,3R,4R,5S)-2-methylpiperidine-3,4,5-triol] | > 50 | – |
| O=C1N[C@H](CO)[C@H](O)[C@@H](O)[C@@H]1O [Compound 446, (3S,4R,5S,6R)-3,4,5-trihydroxy-6-(hydroxymethyl)piperidin-2-one] | > 50 | – |
| CCCC[C@H]1N[C@H](CO)[C@@H](O)[C@@H](O)[C@@H]1O [Compound 488, (2R,3R,4S,5R,6R)-2-butyl-6-(hydroxymethyl)piperidine-3,4,5-triol] | > 50 | – |

More lines, main results first:

| inhibition at 100 µM [2] [%] | SMILES | inhibition at 100 µM [1] [%] |
| --- | --- | --- |
| > 50 | OC[C@H]1[C@H](O)[C@@H](O)CN1Cc1ccccc1 [Compound 500, (2S,3S,4S)-1-benzyl-2-(hydroxymethyl)pyrrolidine-3,4-diol] | – |
| > 50 | C[C@@]1(CO)NC[C@H](O)[C@H]1O [Compound 501, (2S,3S,4S)-2-(hydroxymethyl)-2-methylpyrrolidine-3,4-diol] | – |
| > 50 | OC[C@@H]1[C@@H](O)[C@H](O)[C@@H](O)CN1CCN1CCOCC1 [Compound 509, (2R,3R,4R,5S)-2-(hydroxymethyl)-1-(2-morpholinoethyl)piperidine-3,4,5-triol] | – |
| > 50 | OC[C@@H]1[C@@H](O)[C@H](O)[C@@H](O)CN1Cc1ccccc1 [Compound 510, (2R,3R,4R,5S)-1-benzyl-2-(hydroxymethyl)piperidine-3,4,5-triol] | – |
| > 50 | CN1[C@H](CO)[C@@H](O)[C@H](O)[C@H]1CO [Compound 515, (2R,3R,4R,5R)-2,5-bis(hydroxymethyl)-1-methylpyrrolidine-3,4-diol] | – |
| > 50 | CCCCN1C[C@H](O)[C@H](O)[C@@H]1[C@@H](O)[C@H](O)[C@H](O)CO [Compound 531, (1R,2S,3R)-1-((2R,3R,4S)-1butyl-3,4-dihydroxypyrrolidin-2-yl)butane-1,2,3,4-tetraol] | – |
| > 50 | OC[C@@H]1[C@@H](O)[C@H](O)[C@@H](CO)N1Cc1ccc(-c2ccccc2)cc1 [Compound 558, (2R,3R,4R,5R)-1-(biphenyl-4-ylmethyl)-2,5-bis(hydroxymethyl)pyrrolidine-3,4-diol] | – |
| > 50 | COCCOCCN1C[C@H](O)[C@@H](O)[C@H](O)[C@H]1CO [Compound 725, (2R,3R,4R,5S)-2-(hydroxymethyl)-1-(2-(2-methoxyethoxy)ethyl)piperidine-3,4,5-triol] | – |
| > 50 | CCCC[C@@H]1N[C@@H](CO)[C@H](O)[C@H]1O [Compound 728, (2S,3S,4S,5S)-2-butyl-5-(hydroxymethyl)pyrrolidine-3,4-diol] | – |
| > 50 | OC[C@@H]1N[C@@H](CO)[C@H](O)[C@H]1O [Compound 729, (2S,3S,4S,5S)-2,5-bis(hydroxymethyl)pyrrolidine-3,4-diol] | – |
| > 50 | CC[C@@H]1N[C@@H](CO)[C@H](O)[C@H]1O [Compound 732, (2S,3S,4S,5S)-2-ethyl-5-(hydroxymethyl)pyrrolidine-3,4-diol] | – |
| > 50 | CCCCN1CCC[C@@H](CO)C1 [Compound 741, (R)-(1-butylpiperidin-3-yl)methanol] | – |
